Data set [1] has as its system 16HBE cells. Nature of the data set: In vitro transfection, Metridia luciferase assay in 16HBE cells. The format is cell-based, human. The conditions noted are these: day 2.
Data set [2] in a line: Size and zeta potential measurements (Zetasizer Nano ZS) of P704 based binary and ternary complexes. The format is physicochemical. The method, then: Size and zeta potential measurements: Particle size and zeta potential measurements of P704 based binary and ternary complexes were measured using a Zetasizer Nano ZS (Malvern Instruments Ltd.) at 25° C. Binary complexes were prepared in Tyrode's solution at a weight/weight ratio (P704/IVT-mRNA or pDNA) of 63:1. Ternary complexes were prepared in NF-water with P704 at a weight/weight ratio of 63:1 and the compound at N/P ratio of 10:1 (compound 0 (DL) and compound 8) or 5:1 (compound 4 and compound 9) using methods described above. The IVT-mRNA and pDNA concentration in both binary and ternary complexes was fixed at 10 μg/ml.
The results of physical characterizations (size and zeta potential) of P704 based binary and ternary complexes containing IVT-mRNA or pDNA are given in the following table: […]

The star is where a group is joined. ξ: configuration not given here. Lipoyl(6ξ) = O=C(CCCCC1CCSS1)*

On to “NH2-VKRKKKPKKRRRRKKWK(DL-lipoic acid)-CONH2 (H-VKRKKKPKKRRRRKKWK(Lipoyl(6ξ))-NH2; SMILES CC(C)[C@H](N)C(=O)N[C@@H](CCCCN)C(=O)N[C@@H](CCCNC(=N)N)C(=O)N[C@@H](CCCCN)C(=O)N[C@@H](CCCCN)C(=O)N[C@@H](CCCCN)C(=O)N1CCC[C@H]1C(=O)N[C@@H](CCCCN)C(=O)N[C@@H](CCCCN)C(=O)N[C@@H](CCCNC(=N)N)C(=O)N[C@@H](CCCNC(=N)N)C(=O)N[C@@H](CCCNC(=N)N)C(=O)N[C@@H](CCCNC(=N)N)C(=O)N[C@@H](CCCCN)C(=O)N[C@@H](CCCCN)C(=O)N[C@@H](Cc1c[nH]c2ccccc12)C(=O)N[C@@H](CCCCNC(=O)CCCCC1CCSS1)C(N)=O) [compound 0 (DL)]”, for which the “pDNA expression compared with compound 3 containing ternary complex” value in data set [1] was “similar”. Consider “KETWWETWWTEWWTEW-KKKKRRRRRKKKK-GACSERSMNFCG (KETWWETWWTEWWTEWKKKKRRRRRKKKKGACSERSMNFCG) [compound 9]”, for which the “particle size of ternary complex compared with other counterparts” value in data set [2] is listed as “slightly smaller”.

The record behind these values is patent US11077205B2, “Synthetic compound for improving efficiency of transfection” (Klinikum der Universität München, priority 2016, dated 2021).
